Tests used:
human JAK3 = target: T1, human JAK3 (Homo sapiens, UniProt P52333); experiment: Alphascreen tyrosine kinase enzyme assay, JAK3 kinase domain; assay type: biochemical; conditions: read-out: JAK3 IC50_nM
T1 construct: The kinase domain of human JAK3 was amplified; GST (N); made in house; host or cells: Sf9 insect cells (baculovirus)
How it was run: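 GST-affinity-purified human JAK3 kinase domain (baculovirus/Sf9) was pre-incubated 20 min with compound ([…]) in HEPES pH 7.5 buffer with MgCl2, vanadate and Tween 20. Biotinylated peptide substrate ([…]) and ATP were then added; phosphotyrosine was detected by AlphaScreen PY100 acceptor and streptavidin donor beads after 2–3 h.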

BaF3 wild-type cells = experiment: Cellular screening, BaF3 wild-type cells, Alamar Blue; assay type: cell-based; conditions: Mus musculus, 40 hr, read-out: BAF3wt IC50_nM
How it was run: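 Cells were cultured in DMEM with 10% FCS and 10% WEHI 3B conditioned medium, and suspensions were prepared at 1.1× final (50,000–200,000 cells/mL). Compounds from 20 μM dilution plates were added at 10× final and incubated for 40 hr at 37° C, 5% CO2. Alamar Blue was then added for 4–6 hours and read at 544 nm.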

CTLL2 = experiment: Cellular screening, CTLL2 cells, Alamar Blue; assay type: cell-based; conditions: Mus musculus, CTLL-2, read-out: CTLL2 IC50_nM
How it was run: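 CTLL2 cells in late log phase incubated with compound for 40 hr at 37° C, 5% CO2. Viability then read at 544 nm after a further 4-6 hours with Alamar Blue.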

T1 sequence (P52333 822-1111 limits assumed): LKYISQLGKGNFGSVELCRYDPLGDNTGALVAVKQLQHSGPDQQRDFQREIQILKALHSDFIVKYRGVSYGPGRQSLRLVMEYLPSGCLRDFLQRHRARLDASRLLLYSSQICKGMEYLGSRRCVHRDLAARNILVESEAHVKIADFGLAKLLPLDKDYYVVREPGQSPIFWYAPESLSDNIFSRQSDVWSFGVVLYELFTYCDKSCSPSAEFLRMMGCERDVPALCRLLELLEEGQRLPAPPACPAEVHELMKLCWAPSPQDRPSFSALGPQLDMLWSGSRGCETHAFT

SMILES	IC50 (human JAK3)	IC50 (BaF3 wild-type cells)	IC50 (CTLL2)
C=CC(=O)Nc1ccc(Sc2ccnc(Nc3ccc(S(=O)(=O)NCc4ccccc4)cc3)n2)cc1 [Compound 368, N-(4-(2-(4-(N-benzylsulfamoyl)phenylao)pyrimidin-4-ylthio)phenyl)acrylamide]	< 0.1 µM	< 20 µM	< 5 µM
C=CC(=O)Nc1ccc(Sc2ccnc(Nc3ccc(S(=O)(=O)N4CCN(C)CC4)cc3)n2)cc1 [Compound 370, N-(4-(2-(4-(4-methylpiperazin-1-ylsulfonyl)phenylao)pyrimidin-4-ylthio)phenyl)acrylamide]	< 0.1 µM	< 20 µM	< 5 µM
C=CC(=O)Nc1ccc(Sc2ccnc(Nc3ccc(S(=O)(=O)NCCC(C)C)cc3)n2)cc1 [Compound 371, N-(4-(2-(4-(N-isopentylsulfamoyl)phenylao)pyrimidin-4-ylthio)phenyl)acrylamide]	< 0.1 µM	< 20 µM	< 5 µM
C=CC(=O)Nc1ccc(Sc2ccnc(Nc3cccc(S(=O)(=O)N4CCOCC4)c3)n2)cc1 [Compound 372, N-(4-(2-(3-(morpholinosulfonyl)phenylao)pyrimidin-4-ylthio)phenyl)acrylamide]	< 0.1 µM	< 5 µM	< 5 µM
C=CC(=O)Nc1ccc(Sc2ccnc(Nc3ccc(S(=O)(=O)N4CCOCC4)c(OC)c3)n2)cc1 [Compound 373, N-(4-(2-(3-methoxy-4-(morpholinosulfonyl)phenylao)pyrimidin-4-ylthio)phenyl)acrylamide]	< 0.1 µM	< 5 µM	< 5 µM
O=C(Nc1ccc(Sc2ccnc(Nc3ccc(N4CCOCC4)cc3)n2)cc1)C1CC1(F)Cl (stereo not drawn) [Compound 378, 2-chloro-2-fluoro-N-(4-(2-(4-morpholinophenylao)pyrimidin-4-ylthio)phenyl)cyclopropanecarboxamide]	< 0.5 µM	< 1 µM	> 20 µM
Cc1cnc(Nc2ccc(N3CCOCC3)cc2)nc1Sc1ccc(NC(=O)/C(Br)=C\C(=O)O)cc1 [Compound 381, (E)-3-bromo-4-(4-(5-methyl-2-(4-morpholinophenylao)pyrimidin-4-ylthio)phenylao)-4-oxobut-2-enoic acid]	< 0.5 µM	> 20 µM	< 20 µM
Cc1cnc(Nc2ccc(N3CCOCC3)cc2)nc1Sc1ccc(NC(=O)CCC(=O)O)cc1 [Compound 383, 4-(4-(5-methyl-2-(4-morpholinophenylao)pyrimidin-4-ylthio)phenylao)-4-oxobutanoic acid]	< 0.1 µM	< 20 µM	< 20 µM
Cc1cnc(Nc2ccc(N3CCOCC3)cc2)nc1Sc1ccc(N2C(=O)CCC2=O)cc1 [Compound 384, 1-(4-(5-methyl-2-(4-morpholinophenylao)pyrimidin-4-ylthio)phenyl)pyrrolidine-2,5-dione]	< 0.1 µM	> 20 µM	> 20 µM
CNC(=O)CCC(=O)Nc1ccc(Sc2nc(Nc3ccc(N4CCOCC4)cc3)ncc2C)cc1 [Compound 386, N1-methyl-N4-(4-(5-methyl-2-(4-morpholinophenylao)pyrimidin-4-ylthio)phenyl)succinamide]	< 0.5 µM	> 20 µM	> 20 µM
Cc1cnc(Nc2ccc(N3CCOCC3)cc2)nc1Sc1ccc(NC(=O)/C=C/C(=O)O)cc1 [Compound 387, (E)-4-(4-(5-methyl-2-(4-morpholinophenylao)pyrimidin-4-ylthio)phenylao)-4-oxobut-2-enoic acid]	< 0.1 µM	> 20 µM	> 20 µM
CCOC(=O)/C=C\C(=O)Nc1ccc(Sc2nc(Nc3ccc(N4CCOCC4)cc3)ncc2C)cc1 [Compound 388, (Z)-ethyl 4-(4-(5-methyl-2-(4-morpholinophenylao)pyrimidin-4-ylthio)phenylao)-4-oxobut-2-enoate]	< 0.1 µM	< 5 µM	< 5 µM
Cc1cnc(Nc2ccc(N3CCOCC3)cc2)nc1Sc1ccc(N2C(=O)C=CC2=O)cc1 [Compound 390, 1-(4-(5-methyl-2-(4-morpholinophenylao)pyrimidin-4-ylthio)phenyl)-1H-pyrrole-2,5-dione]	< 0.1 µM	< 5 µM	< 5 µM
C=CC(=O)Nc1ccc(Sc2ccnc(Nc3ccc4c(c3)OCO4)n2)cc1 [Compound 393, N-(4-(2-(benzo[d][1,3]dioxol-5-ylao)pyrimidin-4-ylthio)phenyl)acrylamide]	< 0.1 µM	> 20 µM	< 5 µM

Reference: patent US8846704B2, “Thiopyrimidine-based compounds and uses thereof” (YM Biosciences Austraila Pty Ltd, priority 2007, dated 2014)
